Laboratory results taken from the NIST ThermoML archive (doi:10.1016/j.jct.2013.08.005).
Numbers after ± are expanded uncertainties.

Conditions: 298.15 K; Liquid; Gas chromatography

vapor or sublimation pressure [kPa]	Structure (SMILES)
0.041 ± 0.009	CCCCCNCCCCC [dipentylamine]
0.383 ± 0.12	CCCCNCCCC [dibutylamine]
0.00054 ± 0.00011	CCCCCCCNCCCCCCC [N-heptyl-1-heptanamine]
1.576 ± 0.33	C[C@@H]1CCC[C@H](C)N1 [2,6-lupetidine, cis-]
5.6e-05 ± 1.2e-05	CCCCCCCCNCCCCCCCC [dioctylamine]

Structure (SMILES)	vapor or sublimation pressure [kPa]
c1ccc(CC2CCNCC2)cc1 [4-benzylpiperidine]	0.0015 ± 0.0003
C1CCNCC1 [piperidine]	3.52 ± 0.75
CN[C@@H](C)Cc1ccccc1 [(S)-N-methyl-1-phenylpropan-2-amine]	0.0375 ± 0.008
